Laboratory results taken from ChEMBL document CHEMBL1201862, “PubChem BioAssay data set” (2004).
The source made the active and inactive calls.

Key:
[1] = target: T1, Heat shock 70 kDa protein 1A (Homo sapiens, UniProt P0DMV8); assay: Hsp70 inhibitors, biochemical, TR-FRET (AID 786)
[2] = target: T1, Heat shock 70 kDa protein 1A; assay: Hsp70 inhibitors, probe displacement, primary screen, biochemical, fluorescence polarization (AID 583)
Estrogen receptor = target: T2, Estrogen receptor (Homo sapiens, UniProt P03372);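 note: potency for inhibiting coactivator peptide recruitment to the receptor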
T2 sequence (P03372 whole entry): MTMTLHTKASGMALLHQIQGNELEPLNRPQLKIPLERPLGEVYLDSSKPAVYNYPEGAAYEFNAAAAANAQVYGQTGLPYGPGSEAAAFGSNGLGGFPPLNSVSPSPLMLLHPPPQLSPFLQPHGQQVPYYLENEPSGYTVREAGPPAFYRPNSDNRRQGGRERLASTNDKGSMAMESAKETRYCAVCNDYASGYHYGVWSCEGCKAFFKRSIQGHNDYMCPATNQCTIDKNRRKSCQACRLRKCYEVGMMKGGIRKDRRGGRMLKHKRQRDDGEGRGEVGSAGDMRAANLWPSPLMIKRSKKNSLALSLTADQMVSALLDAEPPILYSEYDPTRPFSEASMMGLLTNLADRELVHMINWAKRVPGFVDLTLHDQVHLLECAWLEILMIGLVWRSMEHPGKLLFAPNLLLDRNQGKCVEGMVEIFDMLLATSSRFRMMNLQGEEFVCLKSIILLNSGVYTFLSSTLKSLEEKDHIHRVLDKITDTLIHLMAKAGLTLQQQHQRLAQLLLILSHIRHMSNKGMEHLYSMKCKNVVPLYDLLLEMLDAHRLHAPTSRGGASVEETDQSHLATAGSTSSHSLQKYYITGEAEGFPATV

Estrogen receptor beta = Estrogen receptor beta (Homo sapiens, UniProt Q92731);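 note: recombinant ER-beta bound to coactivator SRC1 peptide in presence of estradiol agonist; inhibitors block coactivator peptide binding and lower the FRET signal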
Chain of Estrogen receptor beta (Q92731 whole entry): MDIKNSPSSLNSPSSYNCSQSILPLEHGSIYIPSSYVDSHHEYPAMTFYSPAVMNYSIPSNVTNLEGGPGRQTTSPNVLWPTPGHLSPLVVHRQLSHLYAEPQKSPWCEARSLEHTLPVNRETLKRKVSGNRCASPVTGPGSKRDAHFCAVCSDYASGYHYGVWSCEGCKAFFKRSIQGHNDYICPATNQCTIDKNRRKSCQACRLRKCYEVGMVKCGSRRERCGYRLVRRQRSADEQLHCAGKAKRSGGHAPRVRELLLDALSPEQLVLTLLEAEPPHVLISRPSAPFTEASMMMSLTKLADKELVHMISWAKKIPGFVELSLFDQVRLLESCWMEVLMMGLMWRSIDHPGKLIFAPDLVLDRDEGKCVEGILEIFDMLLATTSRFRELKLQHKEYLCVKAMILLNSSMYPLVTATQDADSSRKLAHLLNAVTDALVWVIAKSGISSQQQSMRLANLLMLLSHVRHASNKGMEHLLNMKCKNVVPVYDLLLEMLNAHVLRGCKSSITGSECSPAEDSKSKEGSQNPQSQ

Bcl-2-like protein 10 = Bcl-2-like protein 10 (Homo sapiens, UniProt Q9HD36); assay: Biochemical TR3 FP assay of Bcl-B inhibitor potency, EC50 (AID 1243); assay type: functional
Chain of Bcl-2-like protein 10 (Q9HD36 whole entry): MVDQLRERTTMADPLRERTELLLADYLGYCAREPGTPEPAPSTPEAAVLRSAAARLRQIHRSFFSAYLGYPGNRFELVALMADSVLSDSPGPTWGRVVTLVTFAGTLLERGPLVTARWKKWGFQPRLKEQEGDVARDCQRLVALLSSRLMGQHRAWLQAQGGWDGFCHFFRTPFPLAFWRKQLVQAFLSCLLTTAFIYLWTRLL

Cytochrome P450 2D6 = Cytochrome P450 2D6 (Homo sapiens, UniProt P10635); assay: qHTS Assay for Inhibitors and Substrates of Cytochrome P450 2D6. [Related pubchem assays: 410 ]; assay type: ADME; settings: read-out: Potency
Chain of Cytochrome P450 2D6 (P10635 whole entry): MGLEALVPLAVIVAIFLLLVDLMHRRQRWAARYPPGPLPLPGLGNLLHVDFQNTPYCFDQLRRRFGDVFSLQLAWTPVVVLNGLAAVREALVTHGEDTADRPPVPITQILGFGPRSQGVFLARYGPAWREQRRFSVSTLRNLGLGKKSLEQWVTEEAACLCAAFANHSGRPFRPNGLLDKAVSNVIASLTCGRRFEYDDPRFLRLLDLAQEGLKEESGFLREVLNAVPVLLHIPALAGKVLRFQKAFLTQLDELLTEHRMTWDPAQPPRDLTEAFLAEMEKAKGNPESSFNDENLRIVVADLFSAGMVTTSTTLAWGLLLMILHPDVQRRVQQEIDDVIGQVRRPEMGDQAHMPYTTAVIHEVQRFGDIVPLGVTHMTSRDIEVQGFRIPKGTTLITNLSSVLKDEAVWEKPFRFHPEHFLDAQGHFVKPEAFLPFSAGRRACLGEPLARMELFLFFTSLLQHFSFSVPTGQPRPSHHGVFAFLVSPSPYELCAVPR

[3] = target: Peroxisome proliferator-activated receptor gamma/Nuclear receptor coactivator 2 (Homo sapiens, UniProt P37231); assay type: functional;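 note: agonist potency for raising coactivator recruitment to the receptor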
[4] = target: Peroxisome proliferator-activated receptor gamma/Nuclear receptor coactivator 1 (Homo sapiens, UniProt P37231); assay type: functional;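 note: agonist potency as compounds enhance coactivator SRC-1 recruitment to PPARgamma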
[5] = target: Peroxisome proliferator-activated receptor gamma/Nuclear receptor coactivator 3 (Homo sapiens, UniProt P37231); assay type: functional;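 note: agonist potency for raising coactivator recruitment to the receptor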
[6] = Luminescence Cell-Based Dose Response HTS to Identify Inhibitors of 5'UTR Stem-Loop Driven Prion Protein mRNA Translation in H4 Neuroglioblastoma Cells. [Related pubchem assays: 1827 (Project Summary), 1813 (Primary HTS)]; assay type: functional
[7] = inhibitors of intracellular T. cruzi replication, confirmation, NIH3T3 host cells, beta-gal luminescence (AID 2044); assay type: functional, cell-based;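 note: intracellular parasites grown in NIH/3T3 mouse fibroblasts as host cells; luminescent beta-galactosidase reporter signal from transgenic T. cruzi replicating inside host cells; inhibitors lower the luminescence signal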
[8] = target: Protein-tyrosine kinase 2-beta (Homo sapiens, UniProt Q14289);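 note: potency of inhibitors of PYK2 kinase phosphorylation of poly-GT substrate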
Chain of Protein-tyrosine kinase 2-beta (Q14289 whole entry): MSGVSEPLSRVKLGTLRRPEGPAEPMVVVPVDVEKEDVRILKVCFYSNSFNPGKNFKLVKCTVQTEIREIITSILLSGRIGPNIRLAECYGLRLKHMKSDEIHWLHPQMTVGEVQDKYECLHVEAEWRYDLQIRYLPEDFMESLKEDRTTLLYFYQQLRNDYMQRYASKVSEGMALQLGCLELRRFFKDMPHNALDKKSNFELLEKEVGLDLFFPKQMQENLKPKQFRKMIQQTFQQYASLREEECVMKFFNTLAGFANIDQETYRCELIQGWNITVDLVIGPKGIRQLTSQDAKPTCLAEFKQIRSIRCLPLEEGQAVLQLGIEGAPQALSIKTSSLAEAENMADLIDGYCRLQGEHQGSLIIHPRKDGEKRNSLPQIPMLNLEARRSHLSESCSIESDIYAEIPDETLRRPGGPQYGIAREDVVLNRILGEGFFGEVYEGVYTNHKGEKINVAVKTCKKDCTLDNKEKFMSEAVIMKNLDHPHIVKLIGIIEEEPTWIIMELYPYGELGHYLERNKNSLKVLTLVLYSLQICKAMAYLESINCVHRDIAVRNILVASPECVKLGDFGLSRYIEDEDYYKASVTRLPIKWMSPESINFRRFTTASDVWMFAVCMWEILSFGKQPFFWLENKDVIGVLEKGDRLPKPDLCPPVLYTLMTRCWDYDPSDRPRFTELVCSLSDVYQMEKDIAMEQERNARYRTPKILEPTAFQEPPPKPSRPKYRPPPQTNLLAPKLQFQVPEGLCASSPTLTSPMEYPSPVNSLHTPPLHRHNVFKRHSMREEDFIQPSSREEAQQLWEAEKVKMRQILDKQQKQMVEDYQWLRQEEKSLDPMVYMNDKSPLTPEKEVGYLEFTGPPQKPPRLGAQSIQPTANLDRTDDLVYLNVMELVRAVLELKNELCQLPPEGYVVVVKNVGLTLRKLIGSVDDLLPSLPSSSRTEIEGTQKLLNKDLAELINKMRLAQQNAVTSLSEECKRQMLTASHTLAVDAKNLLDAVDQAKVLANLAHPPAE

[9] = cytotoxicity toward NIH3T3 fibroblasts, dose response, counter-screen, cell-based, ATP luminescence, mouse fibroblasts (AID 2010); assay type: functional;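 note: cells exposed to compound for about 90 hours before reading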
[10] = target: Delta-type opioid receptor (Homo sapiens, UniProt P41143); assay: Counterscreen for agonists of heterodimerization of the mu 1 (OPRM1) and delta 1 (OPRD1) opioid receptors: Luminescence-based cell-based high throughput dose response assay to identify agonists of OPRD1 homodimerization. [Related pubchem assays (depositor defined):AID504326, AID504355, AID504692, AID504904, AID504905]; assay type: functional
Chain of Delta-type opioid receptor (P41143 whole entry): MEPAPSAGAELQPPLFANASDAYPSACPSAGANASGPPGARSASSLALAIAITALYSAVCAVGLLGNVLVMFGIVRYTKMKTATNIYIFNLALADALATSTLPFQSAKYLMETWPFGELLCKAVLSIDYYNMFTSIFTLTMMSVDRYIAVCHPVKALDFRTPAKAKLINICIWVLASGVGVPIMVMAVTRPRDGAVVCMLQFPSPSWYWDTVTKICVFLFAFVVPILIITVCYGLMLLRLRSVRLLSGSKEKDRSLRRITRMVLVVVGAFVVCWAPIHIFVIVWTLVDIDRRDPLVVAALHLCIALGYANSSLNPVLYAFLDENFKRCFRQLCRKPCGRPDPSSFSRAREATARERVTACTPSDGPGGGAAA

Mu-type opioid receptor = Mu-type opioid receptor (Homo sapiens, UniProt P35372); assay: Counterscreen for agonists of heterodimerization of the mu 1 (OPRM1) and delta 1 (OPRD1) opioid receptors: Luminescence-based cell-based high throughput dose response assay to identify agonists of OPRM1 homodimerization.; assay type: functional;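 note: U2OS cells expressing OPRM1 and beta-arrestin as split beta-galactosidase partners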
Chain of Mu-type opioid receptor (P35372 whole entry): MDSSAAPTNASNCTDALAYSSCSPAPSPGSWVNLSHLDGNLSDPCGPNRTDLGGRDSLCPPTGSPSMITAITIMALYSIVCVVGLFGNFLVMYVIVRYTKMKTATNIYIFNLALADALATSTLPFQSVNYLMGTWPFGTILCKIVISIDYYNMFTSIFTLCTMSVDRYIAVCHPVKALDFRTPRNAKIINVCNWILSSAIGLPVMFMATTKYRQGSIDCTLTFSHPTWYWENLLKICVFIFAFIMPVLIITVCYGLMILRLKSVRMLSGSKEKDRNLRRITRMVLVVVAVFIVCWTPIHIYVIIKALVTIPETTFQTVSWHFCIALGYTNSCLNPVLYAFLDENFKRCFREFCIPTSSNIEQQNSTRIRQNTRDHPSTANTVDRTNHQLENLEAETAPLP

[11] = target: 5-hydroxytryptamine receptor 5A (Homo sapiens, UniProt P47898); assay: Counterscreen for agonists of OPRM1-OPRD1 heterodimerization: luminescence-based cell-based high throughput dose response assay to identify agonists of 5-hydroxytryptamine (serotonin) 5A receptor (HTR5A). [Related pubchem assays (depositor defined):AID504326, AID504355, AID504692, AID504904, AID504905]; assay type: functional
Chain of 5-hydroxytryptamine receptor 5A (P47898 whole entry): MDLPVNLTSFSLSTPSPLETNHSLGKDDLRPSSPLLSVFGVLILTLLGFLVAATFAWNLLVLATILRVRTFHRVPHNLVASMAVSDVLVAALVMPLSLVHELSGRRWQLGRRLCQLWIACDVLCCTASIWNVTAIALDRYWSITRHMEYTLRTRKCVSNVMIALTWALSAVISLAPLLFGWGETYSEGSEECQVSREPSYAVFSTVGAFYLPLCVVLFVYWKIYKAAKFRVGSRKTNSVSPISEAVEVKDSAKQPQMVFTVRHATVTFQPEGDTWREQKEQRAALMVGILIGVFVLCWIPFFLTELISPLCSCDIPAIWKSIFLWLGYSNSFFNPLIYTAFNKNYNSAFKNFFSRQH

[12] = target: 26S proteasome non-ATPase regulatory subunit 14 (Homo sapiens, UniProt O00487); assay: inhibition of proteasome subunit RPN11 – biochemical, fluorescence polarization, uHTS hits, confirmation (AID 602368); assay type: functional
Chain of 26S proteasome non-ATPase regulatory subunit 14 (O00487 whole entry): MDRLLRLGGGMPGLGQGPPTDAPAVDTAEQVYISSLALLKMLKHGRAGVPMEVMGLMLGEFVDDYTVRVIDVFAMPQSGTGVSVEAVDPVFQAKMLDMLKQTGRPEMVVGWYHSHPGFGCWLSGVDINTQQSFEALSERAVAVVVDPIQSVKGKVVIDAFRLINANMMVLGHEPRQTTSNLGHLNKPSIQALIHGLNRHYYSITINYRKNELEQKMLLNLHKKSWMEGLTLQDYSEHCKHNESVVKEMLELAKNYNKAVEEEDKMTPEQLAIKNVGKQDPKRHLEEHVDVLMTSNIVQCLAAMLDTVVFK

[13] = target: 72 kDa type IV collagenase (Homo sapiens, UniProt P08253); assay: Dose Response validation of uHTS RPN11 inhibitor hits using a MMP-2 Fluorescence assay.; assay type: functional
Chain of 72 kDa type IV collagenase (P08253 whole entry): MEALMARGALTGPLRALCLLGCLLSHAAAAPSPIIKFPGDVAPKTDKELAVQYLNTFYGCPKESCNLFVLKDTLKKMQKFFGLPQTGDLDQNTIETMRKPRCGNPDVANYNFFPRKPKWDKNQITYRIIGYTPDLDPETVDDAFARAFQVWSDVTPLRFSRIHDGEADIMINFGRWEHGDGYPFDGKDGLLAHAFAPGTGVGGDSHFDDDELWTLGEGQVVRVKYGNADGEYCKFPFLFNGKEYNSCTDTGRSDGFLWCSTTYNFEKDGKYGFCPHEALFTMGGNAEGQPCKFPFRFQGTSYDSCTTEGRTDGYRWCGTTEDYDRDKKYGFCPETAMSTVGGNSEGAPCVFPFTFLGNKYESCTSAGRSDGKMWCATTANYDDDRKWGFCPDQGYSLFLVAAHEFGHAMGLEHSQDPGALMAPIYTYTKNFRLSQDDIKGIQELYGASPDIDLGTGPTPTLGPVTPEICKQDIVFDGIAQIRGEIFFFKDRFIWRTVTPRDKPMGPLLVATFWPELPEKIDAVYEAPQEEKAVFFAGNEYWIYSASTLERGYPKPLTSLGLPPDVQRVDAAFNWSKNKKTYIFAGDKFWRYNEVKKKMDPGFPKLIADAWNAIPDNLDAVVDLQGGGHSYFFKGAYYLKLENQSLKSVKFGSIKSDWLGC

Prothrombin = Prothrombin (Bos taurus, UniProt P00735); assay: thrombin inhibition, dose response, biochemical, fluorescence polarization, uHTS hits (AID 602369); assay type: functional
[14] = HIV-1 Env-mediated cell fusion inhibitors, dose response, CCR5-tropic Env (AID 2279); assay type: functional
[15] = target: Heat shock protein HSP 90-alpha (Homo sapiens, UniProt P07900); assay: Luminescence-based dose response biochemical high throughput screening assay for inhibitors of the Heat Shock Protein 90 (HSP90). [Related pubchem assays: 1831 (Summary AID.), 1846 (Confirmation screen.), 1789 (Primary screen.)]

T1 sequence (P0DMV8 whole entry): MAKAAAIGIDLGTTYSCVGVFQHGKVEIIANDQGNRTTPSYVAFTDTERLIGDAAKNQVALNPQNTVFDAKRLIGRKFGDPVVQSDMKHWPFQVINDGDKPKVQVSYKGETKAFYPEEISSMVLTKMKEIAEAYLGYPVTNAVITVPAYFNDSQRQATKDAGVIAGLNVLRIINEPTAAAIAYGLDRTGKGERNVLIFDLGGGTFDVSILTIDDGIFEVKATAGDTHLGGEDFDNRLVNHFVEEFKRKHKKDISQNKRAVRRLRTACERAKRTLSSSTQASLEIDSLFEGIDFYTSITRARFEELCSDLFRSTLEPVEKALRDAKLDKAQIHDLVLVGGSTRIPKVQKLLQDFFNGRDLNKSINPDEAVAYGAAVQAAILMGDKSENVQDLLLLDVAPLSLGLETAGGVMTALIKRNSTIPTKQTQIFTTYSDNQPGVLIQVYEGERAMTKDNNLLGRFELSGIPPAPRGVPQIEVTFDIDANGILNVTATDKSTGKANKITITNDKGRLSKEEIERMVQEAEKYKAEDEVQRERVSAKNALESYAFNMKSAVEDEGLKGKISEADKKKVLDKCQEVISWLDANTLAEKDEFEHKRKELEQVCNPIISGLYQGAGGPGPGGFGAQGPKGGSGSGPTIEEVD

Question: For `NC(=O)COc1ccc(C2c3c(oc4ccccc4c3=O)C(=O)N2CC2CCCO2)cc1` (stereo unspecified), which IC50 [1] is on record?
Answer: 16 µM (active)

Question: And the IC50 [2]?
Answer: 55.1 µM (active)

Question: What about the IC50 (Estrogen receptor) of the same compound?
Answer: > 50 µM (not active)

Question: What about the IC50 (Estrogen receptor beta) of the same compound?
Answer: > 50 µM (not active)

Question: For `O=S(=O)(O)c1cccc2cccc(Nc3ccccc3)c12`, which EC50 (Bcl-2-like protein 10) is on record?
Answer: 2.95 µM (active)

Question: Which AC50 (Cytochrome P450 2D6) does the source give for `CC1(O)C(=O)C=C2C=C3CCCN3C=C2C1=O` (stereo unspecified) here?
Answer: 7.94 µM (inconclusive)

Question: What does the source list for `O=C(COc1ccc(/C=N/NC(=O)c2cc3ccccc3o2)cc1Br)Nc1ccccc1`?
Answer: EC50 [3]: > 79.4 µM (not active); EC50 [4]: > 79.4 µM (not active); EC50 [5]: > 79.4 µM (not active); EC50 [6]: 9.11 µM (inconclusive); EC50 [7]: 1.97 µM (active); IC50 [8]: > 2.57 µM (not active); EC50 [9]: > 60 µM (not active); EC50 [10]: > 92.5 µM (inactive); EC50 (Mu-type opioid receptor): > 92.5 µM (inactive); EC50 [11]: > 92.5 µM (inactive); IC50 [12]: 12.4 µM (active); IC50 [13]: > 100 µM (inactive); IC50 (Prothrombin): 76.3 µM (active)

Question: Which IC50 [14] does the source give for `COc1cc(/C=N/Nc2ccc(Cl)c(C(=O)O)c2)ccc1OC(=O)c1ccc(F)cc1` here?
Answer: 4.76 µM (active)

Question: What about the IC50 [15] of the same compound?
Answer: 0.874 µM (active)
